From PubChem BioAssay AID330 (DTP/NCI, 2004)
Values joined by “and” are separate entries in the source; they are usually repeats but may differ in a detail not shown here. Equal entries are not always repeated. Toxic doses and inconclusive results are not listed. Peptide text beside a SMILES is read from it. * marks the point of attachment. Cbz = O=C(OCc1ccccc1)*; OBn = c1ccc(CO*)cc1

Tested on: P388 leukemia ip, CD2F1 mice, survival T/C
Assay: NCI In Vivo Anticancer Drug Screen. Data for tumor model P388 Leukemia (intraperitoneal) in CD2F1 (CDF1) mice
Conditions: endpoint: median survival time, higher = longer survival
Method in brief: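 Mice carrying the transplanted tumor received test compound or vehicle. Survival was recorded in each group, and the value is the treated-group measurement divided by that of the vehicle-treated control group.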

[1] = dose: 50.0 mg/kg/injection, schedule: Q01DX005 (ip), vehicle: saline with Tween-80
[2] = dose: 100.0 mg/kg/injection, schedule: Q01DX005 (ip), vehicle: saline with Tween-80
[3] = dose: 200.0 mg/kg/injection, schedule: Q01DX005 (ip), vehicle: saline with Tween-80
[4] = dose: 100.0 mg/kg/injection, schedule: Q01DX001 (ip), vehicle: saline with Tween-80
[5] = dose: 200.0 mg/kg/injection, schedule: Q01DX001 (ip), vehicle: saline with Tween-80
[6] = dose: 50.0 mg/kg/injection, schedule: Q01DX005 (ip), vehicle: Klucel (hydroxypropylcellulose) (HPC)
[7] = dose: 100.0 mg/kg/injection, schedule: Q01DX005 (ip), vehicle: Klucel (hydroxypropylcellulose) (HPC)
[8] = dose: 50.0 mg/kg/injection, schedule: Q01DX009 (ip), vehicle: saline with Tween-80
[9] = dose: 100.0 mg/kg/injection, schedule: Q01DX009 (ip), vehicle: saline with Tween-80
[10] = dose: 50.0 mg/kg/injection, schedule: Q01DX009 (ip), vehicle: Klucel (hydroxypropylcellulose) (HPC)
[11] = dose: 50.0 mg/kg/injection, schedule: Q01DX005 (ip), vehicle: saline
[12] = dose: 100.0 mg/kg/injection, schedule: Q01DX005 (ip), vehicle: saline
[13] = dose: 200.0 mg/kg/injection, schedule: Q01DX005 (ip), vehicle: saline
[14] = dose: 100.0 mg/kg/injection, schedule: Q01DX009 (ip), vehicle: Klucel (hydroxypropylcellulose) (HPC)
[15] = dose: 200.0 mg/kg/injection, schedule: Q01DX009 (ip), vehicle: Klucel (hydroxypropylcellulose) (HPC)
[16] = dose: 200.0 mg/kg/injection, schedule: Q01DX005 (ip), vehicle: Klucel (hydroxypropylcellulose) (HPC)

## N#Cc1[nH]nc2[nH]c(=S)[nH]c(=S)c12
dose: 100.0 mg/kg/injection, schedule: Q04DX002 (ip), vehicle: water
  T/C: 113 % of control
dose: 200.0 mg/kg/injection, schedule: Q04DX002 (ip), vehicle: water
  T/C: 110 % of control
dose: 400.0 mg/kg/injection, schedule: Q04DX002 (ip), vehicle: water
  T/C: 102 % of control

## O=c1c2ccccc2nc(-c2ccccc2)n1-c1nccs1
[1]
  T/C: 86 % of control
[2]
  T/C: 89 % of control
[3]
  T/C: 91 % of control

## CCCCCCCCCCCCCCCCN1CCSCC1
dose: 12.5 mg/kg/injection, schedule: Q01DX009 (ip), vehicle: saline
  T/C: 91 % of control
dose: 25.0 mg/kg/injection, schedule: Q01DX009 (ip), vehicle: saline
  T/C: 97 % of control
dose: 50.0 mg/kg/injection, schedule: Q01DX009 (ip), vehicle: saline
  T/C: 98 % of control and 100 % of control
dose: 100.0 mg/kg/injection, schedule: Q01DX009 (ip), vehicle: saline
  T/C: 92 % of control

## NC1=NS(=O)(=O)N=C(N)C1=NNc1ccc([N+](=O)[O-])cc1
[4]
  T/C: 108 % of control
[5]
  T/C: 92 % of control
dose: 400.0 mg/kg/injection, schedule: Q01DX001 (ip), vehicle: saline with Tween-80
  T/C: 96 % of control

## CCOC(=O)c1ccc(NN=NCCOC)cc1
dose: 12.5 mg/kg/injection, schedule: Q01DX009 (ip), vehicle: distilled water + Tween-80
  T/C: 102 % of control
dose: 25.0 mg/kg/injection, schedule: Q01DX009 (ip), vehicle: distilled water + Tween-80
  T/C: 101 % of control and 105 % of control
dose: 50.0 mg/kg/injection, schedule: Q01DX009 (ip), vehicle: distilled water + Tween-80
  T/C: 122 % of control and 123 % of control

## COc1ccc(/C=N/Nc2nnc3c(n2)[nH]c2ccc(Br)cc23)cc1
dose: 100.0 mg/kg/injection, schedule: Q04DX002 (ip), vehicle: saline with Tween-80
  T/C: 100 % of control
dose: 200.0 mg/kg/injection, schedule: Q04DX002 (ip), vehicle: saline with Tween-80
  T/C: 109 % of control
dose: 400.0 mg/kg/injection, schedule: Q04DX002 (ip), vehicle: saline with Tween-80
  T/C: 110 % of control

## CC1(C)CC2(Nc3ccccc3N2)C2=C(O1)C(=O)OC2
dose: 60.0 mg/kg/injection, schedule: Q01DX005 (ip), vehicle: saline with Tween-80
  T/C: 101 % of control
dose: 120.0 mg/kg/injection, schedule: Q01DX005 (ip), vehicle: saline with Tween-80
  T/C: 103 % of control
dose: 240.0 mg/kg/injection, schedule: Q01DX005 (ip), vehicle: saline with Tween-80
  T/C: 92 % of control

## COCCCNC(=O)c1nnn2c1nc(N)c1cc(Cl)ccc12
[6]
  T/C: 94 % of control
[7]
  T/C: 88 % of control

## CS(=O)(=O)OCCCl
dose: 25.0 mg/kg/injection, schedule: Q01DX009 (ip), vehicle: saline with Tween-80
  T/C: 105 % of control and 108 % of control
[8]
  T/C: 107 % of control and 112 % of control
dose: 75.0 mg/kg/injection, schedule: Q01DX005 (ip), vehicle: saline with Tween-80
  T/C: 113 % of control and 86 % of control
dose: 75.0 mg/kg/injection, schedule: Q01DX009 (ip), vehicle: saline with Tween-80
  T/C: 102 % of control
[4]
  T/C: 100 % of control
[2]
  T/C: 114 % of control and 94 % of control
[9]
  T/C: 111 % of control
[5]
  T/C: 110 % of control

## N#CC1(Nc2ccccc2)CCCC1
dose: 3.13 mg/kg/injection, schedule: Q01DX009 (ip), vehicle: Klucel (hydroxypropylcellulose) (HPC)
  T/C: 104 % of control
dose: 6.25 mg/kg/injection, schedule: Q01DX009 (ip), vehicle: Klucel (hydroxypropylcellulose) (HPC)
  T/C: 104 % of control and 92 % of control and 96 % of control
dose: 12.5 mg/kg/injection, schedule: Q01DX009 (ip), vehicle: Klucel (hydroxypropylcellulose) (HPC)
  T/C: 100 % of control and 90 % of control and 98 % of control
dose: 25.0 mg/kg/injection, schedule: Q01DX009 (ip), vehicle: Klucel (hydroxypropylcellulose) (HPC)
  T/C: 100 % of control and 96 % of control
[10]
  T/C: 104 % of control

## CC(C)=CCC/C(C)=C/COc1cc(O)c2c(O)c3c(cc2c1)CC(C)(O)CC3=O (stereo unspecified)
dose: 6.25 mg/kg/injection, schedule: Q01DX009 (ip), vehicle: saline + Tween-80 + alcohol
  T/C: 107 % of control
dose: 12.5 mg/kg/injection, schedule: Q01DX009 (ip), vehicle: saline + Tween-80 + alcohol
  T/C: 105 % of control
dose: 25.0 mg/kg/injection, schedule: Q01DX009 (ip), vehicle: saline + Tween-80 + alcohol
  T/C: 107 % of control

## O=C(Nc1nccs1)Nc1ccc(Br)cc1C(F)(F)F
[8]
  T/C: 110 % of control
[9]
  T/C: 113 % of control
dose: 200.0 mg/kg/injection, schedule: Q01DX009 (ip), vehicle: saline with Tween-80
  T/C: 113 % of control

## C=C(C(=O)O)C(N)C(=O)O (stereo unspecified)
dose: 25.0 mg/kg/injection, schedule: Q01DX005 (ip), vehicle: saline
  T/C: 98 % of control
[11]
  T/C: 98 % of control
[12]
  T/C: 112 % of control
[13]
  T/C: 97 % of control
dose: 400.0 mg/kg/injection, schedule: Q01DX005 (ip), vehicle: saline
  T/C: 96 % of control

## C=CCSc1nc2ccc(NC(=O)/C=C/C(=O)O)cc2s1
[10]
  T/C: 95 % of control
[14]
  T/C: 93 % of control
[15]
  T/C: 102 % of control

## CC(=O)OCC12CCC(C)=CC1OC1C(=O)CC2(C)C12CO2 (stereo unspecified)
dose: 0.5 mg/kg/injection, schedule: Q01DX009 (ip), vehicle: saline
  T/C: 100 % of control
dose: 1.0 mg/kg/injection, schedule: Q01DX009 (ip), vehicle: saline
  T/C: 101 % of control
dose: 2.0 mg/kg/injection, schedule: Q01DX009 (ip), vehicle: saline
  T/C: 94 % of control
dose: 4.0 mg/kg/injection, schedule: Q01DX009 (ip), vehicle: saline
  T/C: 110 % of control

## CSCCC(N)[P+](=O)O (stereo unspecified)
[11]
  T/C: 99 % of control
[12]
  T/C: 95 % of control
[13]
  T/C: 99 % of control

## O=C(NC(CO)C(=O)N1CCCC1C(=O)OCc1ccccc1)OCc1ccccc1 (stereo not drawn) (Cbz-Ser-Pro-OBn; configuration not given here)
[6]
  T/C: 96 % of control
[7]
  T/C: 93 % of control
[16]
  T/C: 92 % of control

## O=[N+]([O-])c1ccc(C(Nc2nncs2)Nc2nncs2)c([N+](=O)[O-])c1
[6]
  T/C: 97 % of control
[7]
  T/C: 96 % of control
[16]
  T/C: 100 % of control

## Nc1c(Cl)cc(Cl)cc1Cl
dose: 100.0 mg/kg/injection, schedule: Q04DX003 (ip), vehicle: alcohol
  T/C: 108 % of control
dose: 200.0 mg/kg/injection, schedule: Q04DX003 (ip), vehicle: alcohol
  T/C: 100 % of control
dose: 400.0 mg/kg/injection, schedule: Q04DX003 (ip), vehicle: alcohol
  T/C: 100 % of control

## O=C1c2ccccc2C(=C2c3ccccc3C(=O)c3ccccc32)c2ccccc21
[10]
  T/C: 99 % of control
[14]
  T/C: 91 % of control
[15]
  T/C: 92 % of control
dose: 400.0 mg/kg/injection, schedule: Q01DX009 (ip), vehicle: Klucel (hydroxypropylcellulose) (HPC)
  T/C: 97 % of control

## c1ccc2c(c1)ccc1c2c[n+](CCCCCCCC[n+]2cc3c4ccccc4ccc3c3ccccc32)c2ccccc12
dose: 0.78 mg/kg/injection, schedule: Q01DX009 (ip), vehicle: distilled water + Tween-80
  T/C: 172 % of control
dose: 1.56 mg/kg/injection, schedule: Q01DX009 (ip), vehicle: distilled water + Tween-80
  T/C: 163 % of control
dose: 3.13 mg/kg/injection, schedule: Q01DX009 (ip), vehicle: distilled water + Tween-80
  T/C: 204 % of control
dose: 6.25 mg/kg/injection, schedule: Q01DX009 (ip), vehicle: distilled water + Tween-80
  T/C: 209 % of control

## O=C(NC(=O)c1cccc2ccccc12)NC(=S)c1ccc(Br)cc1
dose: 12.5 mg/kg/injection, schedule: Q01DX001 (ip), vehicle: saline
  T/C: 101 % of control
dose: 25.0 mg/kg/injection, schedule: Q01DX001 (ip), vehicle: saline
  T/C: 101 % of control
dose: 50.0 mg/kg/injection, schedule: Q01DX001 (ip), vehicle: saline
  T/C: 101 % of control

## CCCCCCCCCCCC1=C(O)C(=O)C(I)=C(O)C1=O
[1]
  T/C: 108 % of control
[2]
  T/C: 100 % of control and 108 % of control
[3]
  T/C: 108 % of control
